The target in experiment [1] is T1, NS3/NS4A-2 (full-length HCV NS3 protease) (Hepatitis C virus genotype 1a, UniProt P27958).
T1 construct: Recombinant E. coli or Baculovirus full-length NS3 was diluted to 3.33 μM with assay buffer; made in house; host or cells: E. coli or baculovirus (BV) expression
As to the kind of experiment: NS3 Inhibition Assay (NS3-NS4 protease assay, RETS1 substrate, fluorescence kinetic read). Type of experiment: biochemical. The conditions noted are these: NS3/NS4A-2 protease. As for the experimental part: NS3 Complex Formation with NS4A-2.
Recombinant E. coli or Baculovirus full-length NS3 was diluted to 3.33 μM with assay buffer and the material was transferred to an eppendorf tube and placed in a water bath in a 4° C. refrigerator. The appropriate amount of NS4A-2 diluted to 8.3 mM in assay buffer was added to an equal the volume of NS3 above (conversion factor—3.8 mg/272 μL assay buffer). The material was transferred to an eppendorf tube and placed in water bath in a 4° C. refrigerator.
After equilibration to 4° C., equal volumes of NS3 and NS4A-2 solutions were combined in an eppendorf tube, mixed gently with a manual pipettor, and incubated for 15 minutes in the 4° C. water bath. Final concentrations in the mixture are 1.67 μM NS3, 4.15 mM NS4A-2 (2485-fold molar excess NS4A-2).
After 15 minutes at 4° C., the NS3/NS4A-2 eppendorf tube was removed and placed in a room temperature water bath for 10 minutes. NS3/NS4A-2 was aliquoted at appropriate volumes and stored at −80° C. (E. coli NS3 run at 2 nM in assay, aliquot at 25 μL. BV NS3 run at 3 nM in assay, aliquot at 30 μL).
Step a. Sample compounds were dissolved to 10 mM in DMSO then diluted to 2.5 mM (1:4) in DMSO. Typically, compounds were added to an assay plate at 2.5 mM concentration, yielding upon dilution a starting concentration of 50 μM in the assay inhibition curve. Compounds were serial diluted in assay buffer to provide test solutions at lower concentrations.
Step 1. The E. coli. NS3/NS4A-2 was diluted to 4 nM NS3 (1:417.5 of 1.67 μM stock−18 μL 1.67 μM stock+7497 μL assay buffer). […]
The plate was read in kinetic mode on the Molecular Devices SpectraMax Gemini XS plate reader. Reader settings: Read time: 30 minutes, Interval: 36 seconds, Reads: 51, Excitation λ: 335 nm, Emission λ: 495 nm, cutoff: 475 nm, Automix: off, Calibrate: once, PMT: high, Reads/well: 6, Vmax pts: 21 or 28/51 depending on length of linearity of reaction
IC50s are determined using a four parameter curve fit equation, and converted to Ki's using the following Km's: […]

The test system of experiment [2] is HCV sub-genomic replicon (I377/NS3-3') in HuH-7 hepatoma cells (GS4.3). As to the kind of experiment: Quantitation by ELISA of NPTII in the HCV sub-genomic replicon, GS4.3. Type of experiment: cell-based. Particulars: Hepatitis C virus, GS4.3 replicon cells, 72 h. An excerpt:
Quantitation by ELISA of the Selectable Marker Protein, Neomycin Phosphotransferase II (NPTII) in the HCV Sub-Genomic Replicon, GS4.3
The HCV sub-genomic replicon (I377/NS3-3′, accession No. AJ242652), stably maintained in HuH-7 hepatoma cells, was created by Lohmann et al. Science 285: 110-113 (1999). The replicon-containing cell culture, designated GS4.3, was obtained from Dr. Christoph Seeger of the Institute for Cancer Research, Fox Chase Cancer Center, Philadelphia, Pa.
GS4.3 cells were maintained at 37° C., 5%CO2, in DMEM (Gibco 11965-092) supplemented with L-glutamine 200 mM (100×) (Gibco25030-081), non-essential amino acids (NEAA) (Biowhittaker 13-114E), heat-inactivated (HI) Fetal Bovine Serum (FBS) (Hyclone SH3007.03) and 750 μg/mL geneticin (G418) (Gibco 10131-035). Cells were sub-divided 1:3 or 4 every 2-3 days.
24 h prior to the assay, GS4.3 cells were collected, counted, and plated in 96-well plates (Costar 3585) at 7500 cells/well in 100 μL standard maintenance medium (above) and incubated in the conditions above. To initiate the assay, culture medium was removed, cells were washed once with PBS (Gibco 10010-023) and 90 μl Assay Medium (DMEM, L-glutamine, NEAA, 10% HI FBS, no G418) was added. Inhibitors were made as a 10× stock in Assay Medium, (3-fold dilutions from 10 μM to 56 pM final concentration, final DMSO concentration 1%), 10 μL were added to duplicate wells, plates were rocked to mix, and incubated as above for 72 h.
An NPTII Elisa kit was obtained from AGDIA, Inc. (Compound direct ELISA test system for Neomycin Phosphotransferase II, PSP 73000/4800). Manufacturer's instructions were followed, with some modifications. 10× PEB-1 lysis buffer was made up to include 500 μM PMSF (Sigma P7626, 50 mM stock in isopropanol). […] Plates were read at 450 nm on a Molecular Devices Versamax plate reader.
Inhibitor effect was expressed as a percentage of DMSO-treated control signal, and inhibition curves were calculated using a 4-parameter equation: y=A+4B−A)/(1+((C/x)̂C))), where C is half-maximal activity or EC50.
(In an ELISA, binding on a coated surface is turned into a signal by an enzyme label.)

T1 sequence (P27958 1027-1657): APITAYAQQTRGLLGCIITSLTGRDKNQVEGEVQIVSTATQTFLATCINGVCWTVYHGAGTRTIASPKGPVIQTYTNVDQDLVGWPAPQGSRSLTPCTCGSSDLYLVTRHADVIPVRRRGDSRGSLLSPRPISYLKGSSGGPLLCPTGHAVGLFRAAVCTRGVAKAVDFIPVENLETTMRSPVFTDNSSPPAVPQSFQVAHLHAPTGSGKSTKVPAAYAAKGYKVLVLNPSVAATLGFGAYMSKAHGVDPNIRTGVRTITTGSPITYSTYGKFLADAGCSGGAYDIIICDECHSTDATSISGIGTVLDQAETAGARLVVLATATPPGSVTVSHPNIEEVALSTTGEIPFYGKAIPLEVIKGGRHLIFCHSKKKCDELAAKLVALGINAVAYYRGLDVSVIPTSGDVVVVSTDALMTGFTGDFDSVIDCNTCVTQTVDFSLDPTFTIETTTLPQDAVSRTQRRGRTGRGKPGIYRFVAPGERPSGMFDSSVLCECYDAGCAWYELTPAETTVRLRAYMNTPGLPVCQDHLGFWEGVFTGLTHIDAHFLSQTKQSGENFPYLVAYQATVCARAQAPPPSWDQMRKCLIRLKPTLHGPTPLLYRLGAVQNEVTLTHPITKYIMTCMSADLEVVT

A word on the IC50: it is the point on the concentration scale where inhibition reaches its midpoint. By EC50 is commonly meant the concentration that produces a half-maximal response. Low readings indicate greater potency, high ones weaker potency. On to `CC[C@@H]1C[C@@]12NC(=O)[C@@H]1C[C@H](CN1C(=O)[C@@H](NC(=O)OC(C)(C)C)C(C)(C)C)Oc1nc3ccccc3n1C/C=C\CCCC1(CC1)S(=O)(=O)NC2=O` [Compound 1], for which the concentration for half-maximal inhibition (IC50) in experiment [1] was less than 0.1 µM. Moreover, the EC50 in experiment [2] is more than 1 µM.

In experiment [1], `CC[C@@H]1C[C@@]12NC(=O)[C@@H]1C[C@H](CN1C(=O)[C@@H](NC(=O)OC(C)(C)C)C(C)(C)C)Oc1nc3ccccc3n1CCC/C=C\CCC1(CC1)S(=O)(=O)NC2=O` [Compound 5] came in with an IC50 of less than 0.1 µM. Further, the EC50 in experiment [2] is more than 1 µM.

In turn, `CC[C@@H]1C[C@@]12NC(=O)[C@@H]1C[C@H](CN1C(=O)[C@@H](NC(=O)OC(C)(C)C)C(C)(C)C)Oc1nc3ccccc3n1CCCCCCCC1(CC1)S(=O)(=O)NC2=O` [Compound 6] had a concentration for half-maximal inhibition (IC50) in experiment [1] of 0.1 to 1 µM. This molecule displayed an EC50 in experiment [2] of more than 1 µM.

Source of the values: patent publication US20110082182A1, “THERAPEUTIC ANTIVIRAL PEPTIDES” (INTERMUNE, INC., priority 2009, published 2011).
